Test results as given in patent US9573911B2, “Diphosphate mimetics and uses thereof” (President and Fellows of Harvard College, priority 2011, dated 2017).

How the values were obtained:
Experiment in all cases: Further kinase screen, Invitrogen Z'-LYTE
Assay type in all cases: biochemical
Details in all cases: Table 3
CAMK2A (CaMKII alpha) = molecular target: T1, CAMK2A (CaMKII alpha) (Homo sapiens, UniProt Q9UQM7)
T1 construct: purchased Invitrogen
Protocol: (§1) Kinase profiling was conducted using Invitrogen Z'-LYTE screening protocol and assay conditions found at www.invitrogen.com. Compound (2) inhibited PLK1 completely at 5 μM.
(§2) A further kinase screen was performed on Compounds (2), (4A), and (4B) using the assay described above.

CAMK4 (CaMKIV) = molecular target: T2, CAMK4 (CaMKIV) (Homo sapiens, UniProt Q16566)
T2 construct: purchased Invitrogen
Protocol: as §1, §2

CDK2/cyclin A = molecular target: T3, CDK2/cyclin A (Homo sapiens, UniProt P24941)
T3 construct: purchased Invitrogen
Protocol: as §1, §2

JAK3 = molecular target: T4, JAK3 (Homo sapiens, UniProt P52333)
T4 construct: purchased Invitrogen
T4 sequence (P52333 1-1124): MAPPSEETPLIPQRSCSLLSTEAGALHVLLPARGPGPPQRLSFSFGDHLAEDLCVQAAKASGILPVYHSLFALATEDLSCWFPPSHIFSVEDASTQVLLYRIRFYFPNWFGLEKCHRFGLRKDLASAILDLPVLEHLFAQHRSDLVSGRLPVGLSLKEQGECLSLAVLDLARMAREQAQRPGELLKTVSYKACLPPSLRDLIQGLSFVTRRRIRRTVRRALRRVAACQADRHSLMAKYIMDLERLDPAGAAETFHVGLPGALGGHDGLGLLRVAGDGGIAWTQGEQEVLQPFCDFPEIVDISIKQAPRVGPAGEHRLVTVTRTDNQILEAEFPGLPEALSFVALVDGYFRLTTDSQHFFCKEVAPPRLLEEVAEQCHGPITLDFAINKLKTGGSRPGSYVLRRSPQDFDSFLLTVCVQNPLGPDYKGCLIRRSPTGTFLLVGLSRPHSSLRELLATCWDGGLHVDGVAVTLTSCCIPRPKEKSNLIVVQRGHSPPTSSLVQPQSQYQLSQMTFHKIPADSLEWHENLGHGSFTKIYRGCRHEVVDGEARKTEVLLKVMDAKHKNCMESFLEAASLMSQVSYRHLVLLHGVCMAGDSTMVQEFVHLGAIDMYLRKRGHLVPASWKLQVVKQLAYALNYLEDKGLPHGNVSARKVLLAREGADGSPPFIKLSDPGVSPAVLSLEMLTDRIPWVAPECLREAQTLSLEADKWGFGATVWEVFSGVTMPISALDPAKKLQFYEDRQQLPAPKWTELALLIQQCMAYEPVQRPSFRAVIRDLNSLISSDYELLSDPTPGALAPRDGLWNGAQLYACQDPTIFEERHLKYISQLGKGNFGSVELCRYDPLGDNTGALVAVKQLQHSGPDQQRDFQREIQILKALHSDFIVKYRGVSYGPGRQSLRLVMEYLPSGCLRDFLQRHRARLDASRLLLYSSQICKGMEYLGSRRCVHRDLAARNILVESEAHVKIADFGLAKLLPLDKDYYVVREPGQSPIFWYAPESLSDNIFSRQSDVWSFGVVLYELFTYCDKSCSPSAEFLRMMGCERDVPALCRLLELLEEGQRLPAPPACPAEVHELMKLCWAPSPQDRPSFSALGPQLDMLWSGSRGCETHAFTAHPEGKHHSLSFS
Protocol: as §1, §2

MARK3 = molecular target: T5, MARK3 (Homo sapiens, UniProt P27448)
T5 construct: purchased Invitrogen
Protocol: as §1, §2

RPS6KA3 (RSK2) = molecular target: T6, RPS6KA3 (RSK2) (Homo sapiens, UniProt P51812)
T6 construct: purchased Invitrogen
Protocol: as §1, §2

RPS6KB1 (p70S6K) = molecular target: T7, RPS6KB1 (p70S6K) (Homo sapiens, UniProt P23443)
T7 construct: purchased Invitrogen
Protocol: as §1, §2

SRPK1 = molecular target: T8, SRPK1 (Homo sapiens, UniProt Q96SB4)
T8 construct: purchased Invitrogen
Protocol: as §1, §2

SYK = molecular target: T9, SYK (Homo sapiens, UniProt P43405)
T9 construct: purchased Invitrogen
Protocol: as §1, §2

T6 sequence (P51812 whole entry): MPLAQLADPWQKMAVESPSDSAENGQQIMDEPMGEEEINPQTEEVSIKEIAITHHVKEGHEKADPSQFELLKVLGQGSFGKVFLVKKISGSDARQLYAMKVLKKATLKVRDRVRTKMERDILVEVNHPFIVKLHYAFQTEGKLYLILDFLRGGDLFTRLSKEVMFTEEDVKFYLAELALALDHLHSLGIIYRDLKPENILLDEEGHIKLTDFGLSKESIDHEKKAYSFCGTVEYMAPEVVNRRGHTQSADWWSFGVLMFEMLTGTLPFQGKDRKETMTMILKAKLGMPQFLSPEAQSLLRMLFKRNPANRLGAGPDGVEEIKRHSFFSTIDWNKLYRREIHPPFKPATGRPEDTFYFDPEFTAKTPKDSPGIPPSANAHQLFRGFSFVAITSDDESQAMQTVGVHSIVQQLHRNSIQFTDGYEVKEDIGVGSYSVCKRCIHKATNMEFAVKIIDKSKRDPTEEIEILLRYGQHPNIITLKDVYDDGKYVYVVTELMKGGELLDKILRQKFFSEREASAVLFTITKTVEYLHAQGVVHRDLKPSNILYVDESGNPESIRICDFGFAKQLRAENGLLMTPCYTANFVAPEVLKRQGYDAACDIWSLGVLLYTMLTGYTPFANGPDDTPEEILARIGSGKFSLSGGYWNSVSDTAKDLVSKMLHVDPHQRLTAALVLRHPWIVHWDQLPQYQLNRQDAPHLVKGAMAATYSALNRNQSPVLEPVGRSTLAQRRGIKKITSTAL
T7 sequence (P23443 whole entry): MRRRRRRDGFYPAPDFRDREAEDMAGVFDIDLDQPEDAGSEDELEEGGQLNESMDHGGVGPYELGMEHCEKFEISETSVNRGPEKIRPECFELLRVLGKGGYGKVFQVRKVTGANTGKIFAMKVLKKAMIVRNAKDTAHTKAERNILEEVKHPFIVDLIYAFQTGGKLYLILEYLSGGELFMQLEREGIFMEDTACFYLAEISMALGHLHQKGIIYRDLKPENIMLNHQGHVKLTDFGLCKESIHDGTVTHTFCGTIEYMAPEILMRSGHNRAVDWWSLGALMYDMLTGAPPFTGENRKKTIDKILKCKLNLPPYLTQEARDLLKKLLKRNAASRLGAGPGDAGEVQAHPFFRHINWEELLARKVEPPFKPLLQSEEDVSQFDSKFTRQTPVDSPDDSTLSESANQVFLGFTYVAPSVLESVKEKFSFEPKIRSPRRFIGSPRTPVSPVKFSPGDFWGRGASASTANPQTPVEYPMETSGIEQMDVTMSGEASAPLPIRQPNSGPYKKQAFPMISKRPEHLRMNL
T8 sequence (Q96SB4 whole entry): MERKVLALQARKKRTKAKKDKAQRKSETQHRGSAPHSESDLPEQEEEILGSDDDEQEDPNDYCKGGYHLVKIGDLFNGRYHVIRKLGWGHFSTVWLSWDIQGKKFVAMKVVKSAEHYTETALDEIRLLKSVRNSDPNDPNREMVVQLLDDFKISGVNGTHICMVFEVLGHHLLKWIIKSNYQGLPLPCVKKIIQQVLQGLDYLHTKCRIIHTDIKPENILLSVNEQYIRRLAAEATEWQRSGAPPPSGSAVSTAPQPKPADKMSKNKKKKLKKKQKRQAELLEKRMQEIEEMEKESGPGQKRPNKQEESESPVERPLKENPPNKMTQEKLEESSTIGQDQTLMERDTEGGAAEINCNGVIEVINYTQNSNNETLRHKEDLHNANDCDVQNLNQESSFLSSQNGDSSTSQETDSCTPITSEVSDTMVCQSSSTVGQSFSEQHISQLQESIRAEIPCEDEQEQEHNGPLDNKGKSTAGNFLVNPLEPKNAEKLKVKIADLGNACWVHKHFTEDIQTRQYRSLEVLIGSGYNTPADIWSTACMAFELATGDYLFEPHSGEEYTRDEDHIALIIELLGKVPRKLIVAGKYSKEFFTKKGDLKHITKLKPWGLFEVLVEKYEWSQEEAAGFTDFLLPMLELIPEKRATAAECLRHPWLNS
T5 sequence (P27448 whole entry): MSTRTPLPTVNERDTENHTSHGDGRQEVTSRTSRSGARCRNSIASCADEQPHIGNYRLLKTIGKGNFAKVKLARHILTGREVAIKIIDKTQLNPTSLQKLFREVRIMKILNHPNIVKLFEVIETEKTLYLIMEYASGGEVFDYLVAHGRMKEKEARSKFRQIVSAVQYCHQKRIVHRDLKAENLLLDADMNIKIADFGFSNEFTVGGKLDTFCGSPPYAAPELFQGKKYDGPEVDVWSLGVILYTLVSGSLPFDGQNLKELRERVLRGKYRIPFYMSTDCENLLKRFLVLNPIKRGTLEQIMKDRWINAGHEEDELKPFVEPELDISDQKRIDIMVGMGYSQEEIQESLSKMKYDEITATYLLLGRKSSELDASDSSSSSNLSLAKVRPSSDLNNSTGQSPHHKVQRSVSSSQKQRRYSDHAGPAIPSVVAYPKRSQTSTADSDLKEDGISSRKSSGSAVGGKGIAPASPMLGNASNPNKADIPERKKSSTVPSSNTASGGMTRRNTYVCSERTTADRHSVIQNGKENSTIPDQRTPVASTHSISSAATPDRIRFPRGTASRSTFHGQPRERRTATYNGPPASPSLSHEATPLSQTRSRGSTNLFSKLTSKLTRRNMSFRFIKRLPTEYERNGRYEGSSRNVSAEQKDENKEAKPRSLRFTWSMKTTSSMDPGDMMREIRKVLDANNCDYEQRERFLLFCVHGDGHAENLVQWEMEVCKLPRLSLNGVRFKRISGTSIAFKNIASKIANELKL

Structure (SMILES) | % Inhibition Point 1 (CAMK2A (CaMKII alpha)) | % Inhibition Point 2 (CAMK2A (CaMKII alpha)) | % Inhibition mean (CAMK2A (CaMKII alpha)) | % Inhibition Point 1 (CAMK4 (CaMKIV)) | % Inhibition Point 2 (CAMK4 (CaMKIV)) | % Inhibition mean (CAMK4 (CaMKIV)) | % Inhibition Point 1 (CDK2/cyclin A) | % Inhibition Point 2 (CDK2/cyclin A) | % Inhibition mean (CDK2/cyclin A) | % Inhibition Point 1 (JAK3) | % Inhibition Point 2 (JAK3) | % Inhibition mean (JAK3) | % Inhibition Point 1 (RPS6KA3 (RSK2)) | % Inhibition Point 2 (RPS6KA3 (RSK2)) | % Inhibition mean (RPS6KA3 (RSK2)) | % Inhibition Point 1 (RPS6KB1 (p70S6K)) | % Inhibition Point 2 (RPS6KB1 (p70S6K)) | % Inhibition mean (RPS6KB1 (p70S6K)) | % Inhibition Point 1 (SRPK1) | % Inhibition Point 2 (SRPK1) | further results
COc1ccc(OC(=O)n2c(=S)oc3cc(C(C)=O)ccc32)cc1 [Compound 4B] | 57% | 55% | 56% | 52% | 46% | 49% | −2% | 4% | 1% | 65% | 64% | 65% | 58% | 64% | 61% | 35% | 44% | 40% | 0% | 2% | % Inhibition Point 1 (MARK3): 34%; % Inhibition Point 2 (MARK3): 36%; % Inhibition mean (MARK3): 35%; % Inhibition mean (SRPK1): 1%; % Inhibition Point 1 (SYK): 58%; % Inhibition Point 2 (SYK): 54%; % Inhibition mean (SYK): 56%
COc1ccc(OC(=O)n2c(=O)oc3cc(C(C)=O)ccc32)cc1 [Compound 2] | −14% | −10% | −12% | −159% | −201% | −180% | −297% | −301% | −299% | −90% | −83% | −86% | −200% | −212% | −206% | −138% | −122% | −130% | −49% | −38% | % Inhibition mean (SRPK1): −44%; % Inhibition Point 1 (SYK): 4%; % Inhibition Point 2 (SYK): −4%; % Inhibition mean (SYK): 0%
COc1ccc(OC(=S)n2c(=O)oc3cc(C(C)=O)ccc32)cc1 [Compound 4A] | 20% | 24% | 22% | 18% | 24% | 21% | 9% | 9% | 9% | 41% | 30% | 36% | 55% | 56% | 55% | 19% | 22% | 21% | −6% | 2% | % Inhibition Point 1 (MARK3): 8%; % Inhibition Point 2 (MARK3): 12%; % Inhibition mean (MARK3): 10%; % Inhibition mean (SRPK1): −2%; % Inhibition Point 1 (SYK): 21%; % Inhibition Point 2 (SYK): 24%; % Inhibition mean (SYK): 23%
